Legend:
SMNA7 cells = test: Morphology (neurite-like structure) of SMNA7 cells; assay type: cell-based; conditions: after treating with b-isox
Excerpt: We investigate whether baicalein can act as a pharmacological chaperone to refold misfolded SMNA7 into a functional prion-like domain, as shown in FIG. 8 (FIG. 10a). […] PFN1 is a known SMN interactor in the cytosol. We further examined whether baicalein attenuated the degradation of the SMNA7 protein. […] We found baicalein increased the length of axons from NSC34 cells expressing SMNA7 by approximately 2-fold (FIG. 10g).

SMN = target: T1, SMN (Homo sapiens, UniProt Q16637); test: B-isox precipitation, SMN; assay type: binding; conditions: 100 μM b-isox, lysates of mes23.5 and 293T cells, 4° C.
T1 construct: endogenous in cells; host or cells: 293T (also mes23.5)
Description: (§1) B-isox Precipitation: The 293T cells were harvested and lysed with RIPA buffer. The protein concentration was adjusted to 1 to 10 mg/mL, and 10 mM biotinylated isoxazole was added to the cell lysate to a final concentration of 100 to 200 µM. The mixtures were then incubated at 4° C. for 60 min, centrifuged at 15000 rpm for 15 min at 4° C., and the supernatant was discarded. The entire reaction volumes were subjected to SDS-PAGE and western blotting.
Biotinylated isoxazole (b-isox), a recently identified specific chemical probe, specifically recognizes the cross-β prion-like polymer and sequentially precipitates with proteins with low complexity, prion-like domains, or phase-separated domains, such as TDP-43 and Fus. We initially incubated 100 μM b-isox with cell lysates of mes23.5 and 293T cells at 4° C. to chemically precipitate whole prion-like proteins and then analyzed the efficiency of SMN binding by western blotting to assess the prion-like or phase transition potential of SMN (FIGS. 8a and b). […] H3K4me3 proteins were used as control for insoluble loading (FIG. 8c). Indeed, insoluble SMN has been reported to be important for the assembly of Cajal bodies (CBs) via the SUMO-like interacting motif (SIM-like). Thus, sumoylation is one of the cellular regulatory mechanisms that trigger nuclear SMN to form the separated phase though cross-β polymerization.

PFN1 = target: T2, PFN1 (Homo sapiens, UniProt P07737); test: B-isox precipitation, PFN1; assay type: binding; conditions: 293T cell fractions
T2 construct: endogenous in cells; host or cells: 293T
Description: as §1
Because visible SMN granules were not observed in the cytosol under normal conditions, we deduced that SMN polymers may participate in heteromeric interactions with other prion-like proteins to fulfill biological functions in the cytosol. […] Mutations in PFN1 cause co-aggregation with TDP-43 in patients with familial amyotrophic lateral sclerosis (ALS), supporting the hypothesis that PFN1 is a prion-like protein. […] Thus, we postulated that these interactions were mediated by prion-like nature. Furthermore, we incubated full-length SMN or a panel of exon deletion constructs of SMN with b-isox and then performed a western blot analysis to identify the b-isox binding site in SMN. […] The domains encoded by exons 2b and 6 have consistently been reported to self-interact. […] Based on the results of the solubility examination, variants containing exons 6-7 were not detected in the insoluble fraction, although those variants formed visible granules. […]

Rb = target: T3, Rb (Homo sapiens, UniProt P06400); test: B-isox precipitation, Rb; assay type: binding; conditions: 100 μM b-isox, lysates of 293T cells, 4° C.
T3 construct: endogenous in cells; host or cells: 293T
T3 sequence (P06400 1-928): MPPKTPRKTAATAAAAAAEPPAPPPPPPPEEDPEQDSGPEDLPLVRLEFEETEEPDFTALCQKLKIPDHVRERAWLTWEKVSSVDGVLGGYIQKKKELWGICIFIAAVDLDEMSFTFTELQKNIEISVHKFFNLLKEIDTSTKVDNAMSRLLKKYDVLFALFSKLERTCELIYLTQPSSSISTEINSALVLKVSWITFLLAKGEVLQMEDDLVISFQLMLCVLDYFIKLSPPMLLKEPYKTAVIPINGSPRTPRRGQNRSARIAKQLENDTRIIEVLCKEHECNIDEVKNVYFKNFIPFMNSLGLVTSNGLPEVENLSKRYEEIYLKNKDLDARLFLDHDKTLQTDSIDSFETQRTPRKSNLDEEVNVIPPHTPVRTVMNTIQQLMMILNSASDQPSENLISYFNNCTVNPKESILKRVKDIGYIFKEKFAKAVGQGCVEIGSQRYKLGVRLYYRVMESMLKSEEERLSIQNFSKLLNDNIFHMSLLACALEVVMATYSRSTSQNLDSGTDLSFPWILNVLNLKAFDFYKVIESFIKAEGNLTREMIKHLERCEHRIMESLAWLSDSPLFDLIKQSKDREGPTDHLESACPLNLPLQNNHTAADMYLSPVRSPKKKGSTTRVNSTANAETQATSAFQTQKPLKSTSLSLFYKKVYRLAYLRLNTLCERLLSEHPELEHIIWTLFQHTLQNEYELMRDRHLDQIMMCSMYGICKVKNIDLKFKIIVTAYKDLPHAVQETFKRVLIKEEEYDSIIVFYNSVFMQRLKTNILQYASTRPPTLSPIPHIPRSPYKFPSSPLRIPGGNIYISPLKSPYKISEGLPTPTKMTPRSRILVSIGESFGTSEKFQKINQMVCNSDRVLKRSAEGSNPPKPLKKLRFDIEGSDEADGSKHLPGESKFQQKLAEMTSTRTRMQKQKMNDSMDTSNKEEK
Description: as §1
We incubated 100 μM b-isox with cell lysates of 293T cells at 4° C. to chemically precipitate whole prion-like proteins and then analyzed the efficiency of Rb binding by western blotting to assess the prion-like or phase transition potential of Rb (FIG. 22). […] The N-terminus of Rb (aa. 10-56) stabilizes prion-like conformation (FIG. 22c). Deletion of Rb N-terminus leads to protein degradation (FIG. 22d).

[1] = target: T4, TDP-43 and Lam B recombinant proteins (Homo sapiens, UniProt Q13148); test: In vitro assembly of TDP-43 and Lam B filaments (electron microscopy); assay type: biochemical; conditions: 3 μM proteins, b-isox 100 μM, 2 hr, RT
T4 construct: Purified full-length TDP-43 and Lam B recombinant proteins (equivalent 3 μM monomer)
Description: To investigate the de novo mechanism of heterotypic interactions of the cross-β, we incubated TDP-43 and Lam B recombinant proteins with or without b-isox for 2 hr in vitro. […] In cells, the percentage of cross-β conformers of LC protein was approximately 10˜70% by the b-isox binding analysis, e.g. 21.2% cross-β conformers of TDP-43 in Mes23.5 dopaminergic neurons (FIG. 13j). We assume that inside the cells, most of the intrinsically disordered LC domains are protected through structure folding or binding with other proteins that limits the cross-β-nucleating reactions.

T2 sequence (P07737 whole entry): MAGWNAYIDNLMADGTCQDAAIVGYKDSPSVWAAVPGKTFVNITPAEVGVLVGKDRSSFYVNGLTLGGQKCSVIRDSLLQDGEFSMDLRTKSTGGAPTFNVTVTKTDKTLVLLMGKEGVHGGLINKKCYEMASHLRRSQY
T1 sequence (Q16637 2-294): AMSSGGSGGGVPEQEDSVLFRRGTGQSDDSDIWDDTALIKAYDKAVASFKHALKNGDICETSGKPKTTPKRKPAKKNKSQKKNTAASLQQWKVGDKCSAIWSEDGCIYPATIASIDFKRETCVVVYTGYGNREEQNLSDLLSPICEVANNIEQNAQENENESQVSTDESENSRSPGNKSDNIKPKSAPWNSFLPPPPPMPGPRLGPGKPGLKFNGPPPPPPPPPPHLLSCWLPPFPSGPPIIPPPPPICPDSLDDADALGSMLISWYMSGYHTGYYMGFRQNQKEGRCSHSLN
T4 sequence (Q13148 whole entry): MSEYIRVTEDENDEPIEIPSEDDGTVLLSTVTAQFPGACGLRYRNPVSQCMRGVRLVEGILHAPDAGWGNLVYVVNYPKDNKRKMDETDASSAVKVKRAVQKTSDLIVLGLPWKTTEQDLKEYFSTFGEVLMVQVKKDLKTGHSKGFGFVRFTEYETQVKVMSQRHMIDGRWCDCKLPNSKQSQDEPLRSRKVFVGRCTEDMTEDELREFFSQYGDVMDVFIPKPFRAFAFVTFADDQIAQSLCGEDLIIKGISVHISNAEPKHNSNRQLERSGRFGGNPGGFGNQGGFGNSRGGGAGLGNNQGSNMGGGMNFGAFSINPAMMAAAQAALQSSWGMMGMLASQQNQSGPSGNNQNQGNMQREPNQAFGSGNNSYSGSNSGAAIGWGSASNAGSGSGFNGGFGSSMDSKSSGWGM

O=C1N[C@H]2[C@H](CS[C@H]2CCCCC(=O)OCCCCCCNC(=O)c2cc(-c3cccs3)on2)N1 [b-isox, biotinylated isoxazole]
morphology of SMNA7 cells (SMNA7 cells): became round and detached
precipitation of SMN by b-isox (SMN): precipitation of both SMN and sumoylated SMN
precipitation of PFN1 by b-isox (PFN1): precipitated
precipitation of Rb by b-isox (Rb): precipitation of Rb
short cylindrical filaments of TDP-43 and Lam B [1]: disrupted

From US20210121438A1, “METHODS FOR TREATING OR PREVENTING CONFORMATION DISEASES AND METHODS FOR DRUG SCREENING” (GARAGE BRAIN SCIENCE CO., LTD, priority 2018, published 2021)
